Tests used:
[1] = test system: aged C57Bl/6JRj mice; assay: Transplantation of MuSCs from myriocin treated donors into cardiotoxin-injured aged C57Bl/6JRj recipients; assay type: in vivo, mouse
From the text: Decline in tissue regenerative potential is a major hallmark of mammalian aging, including skeletal muscle. It was next asked the question whether myriocin treatment induces functional improvement of MuSCs, boosting their regenerative capacity. MuSCs from aged mice treated or untreated with myriocin for 5 months were isolated, and transplanted into tibialis anterior (TA) muscles of recipient mice. The recipient mice were either aged (20-month-old) C57Bl/6JRj or aged (1-year-old) mdx mice, a mouse model of Duchenne muscular dystrophy lacking dystrophin protein (FIG. 4a). Before MuSC transplantation, injury was induced by cardiotoxin injection to TA of all recipient mice. […] At both 7 and 14 days after transplantation the inflammatory area was also smaller (FIG. 12a-b) in mdx recipients of MuSCs isolated from myriocin treated mice. […] Thus, transplantation of MuSCs derived from myriocin treated donors induce major morphological improvements following cardiotoxin-induced muscle injury.
To test whether the functional improvement of MuSCs upon myriocin treatment also translates into better muscle function of recipient mice, tests of muscle function were performed before and 7 days after MuSC transplantation.
Endurance running test. The exercise regimen on a treadmill commenced at a speed of 9 cm/s. As the mice were aged, an inclination of 0 degrees was used. Mice were considered to be exhausted, and removed from the treadmill if they received 7 or more shocks (0.2 mA) per minute for two consecutive minutes. The distance traveled and time before exhaustion were registered as maximal running distance and time.
Grip strength. Muscle strength was assessed by grip strength test. The grip strength of each mouse was measured on a pulldown grid assembly connected to a grip strength meter (Columbus Instruments). The mouse was drawn along a straight line parallel to the grip, providing peak force. The experiment was repeated three times, and the highest value was included in the analysis.
Rotarod test. The rotarod test measures muscle strength, coordination, and endurance. Mice were left undisturbed in the room for 30 min. The speed of the rotating cylinder (rotarod) increased from 0 to 40 rpm in 5 min. Each mouse had 3 trials per day for 3 consecutive days. The latency and speed the mouse reached it passive rotation or fall from the rotor was recorded, and the latency and speed of the best trial of the second day is presented.
Cardiotoxin-induced muscle damage and MuSC transplantation. MuSCs were transplanted from donor mice to recipient mice. The donor mice were aged male C57Bl/6JRj mice, whose treatment with myriocin was started at the age of 18 months. The recipient mice were either aged (18-month-old) male C57Bl/6JRj mice or 1-year-old male mdx mice. 50 μL of 20 μM Naje Mossambica mossambica cardiotoxin (Sigma) was injected intramuscularly into the tibialis anterior (TA) muscle of recipient mice before transplantation. 24 h after CTX injection, equal number (1500) of freshly isolated MuSCs from donor mice were injected intramuscularly into the TA muscle. Recipient mice were sacrificed at 7 and 14 days after transplantation.
Histology. TA muscles were harvested from anesthetized mice, and immediately embedded in Thermo Scientific™ Shandon™ Cryomatrix™ and frozen in isopentane, cooled in liquid nitrogen, for 1 min before being transferred to dry ice and stored at −80° C. 8 μm cryosections were incubated in 4% PFA for 15 min, washed three times for 10 min with PBS, incubated for antigen retrieval in pH 6.0 citrate buffer for 10 min at 95° C. (for PAX7 antibody), counterstained with DAPI, laminin (1:200, Sigma), PAX7 (1:200, DSHB, University of Iowa), dystrophin (1:100, Spring Bioscience) or eMyHC (1:50, DSHB, University of Iowa), coupled with Alexa-488 or Alexa-568 fluorochromes (Life Technology) and mounted with Dako Mounting Medium. Microscopy images of fluorescence from muscle fibers were analyzed using the ImageJ software. […]

[2] = test system: human primary myoblasts; assay: Human primary myoblast differentiation; assay type: cell-based; details: 30 μM myriocin vs DMSO
Procedure: Cell culture and cell transfection. The C2C12 mouse myoblast cell line was obtained from the American Type Culture Collection (CRL-1772™). C2C12 cells or clones were cultured in growth medium consisting of Dulbecco's modified Eagle's medium (Gibco, 41966-029), 20% Fetal Bovine Serum (Gibco, 10270-106) and 100 U/mL penicillin and […] streptomycin (Gibco, 15140-122). To induce differentiation, FBS was substituted with 2% horse serum (Gibco, 16050-122). Trypsin-EDTA 0.05% (GIBCO, 25300-062) was used to detach cells. Human skeletal muscle cells were obtained from Lonza (SkMC, #CC-2561) and cultured in growth medium consisting of DMEM/F12 (Gibco, 10565018), 20% Fetal Bovine Serum (Gibco, 10270-106) and 100 U/mL penicillin and […] streptomycin (Gibco, 15140-122). To induce differentiation, FBS was reduced to 2% and kept in culture. All cells were maintained at 37° C. with 5% CO2. Cell transfections were done using TransiT (Mirus) according to the manufacturer's protocol with a 3:1 ratio of transfection agent to DNA. […]
Immunocytochemistry. […] The immunofluorescence images were acquired using either fluorescence or confocal microscopy. The myofusion index was calculated as the ratio of nuclei within myotubes to total nuclei. The myotube diameter was measured for 8 myotubes per image using ImageJ. Myotube area was calculated as the total area covered by myotubes.

[3] = aged C57Bl/6JRj recipients of MuSCs from myriocin treated donors, 7 days
[4] = aged recipients of MuSCs from myriocin treated mice, 7 days after transplantation, change relative to baseline

With CCCCCCC(=O)CCCCCCC=CCC(O)C(O)C(N)(CO)C(=O)O (centres unmarked) [myriocin, 2-Amino-3,4-dihydroxy-2-(hydroxymethyl)-14-oxoicos-6-enoic acid] the “inflammatory area of TA” value ([1]; aged C57Bl/6JRj recipients of MuSCs from myriocin treated donors, 7 and 14 days after injury) was “smaller”, the “count of PAX7+ cells per field and per section” value [1, 3] was “increased count” and the “embryonic myosin heavy chain (eMyHC) positive area” value [1, 3] was “higher”. The “exercise capacity (maximal running distance)” value [1, 4] was “improved”, the grip strength [1, 4] was “improved” and the “latency in rotarod test” value [1, 4] was “increased latency”. For the same molecule, the human myoblast differentiation [2] was “accelerated” and the myotube area [2] was “larger”.

— patent publication US20220288004A1, “TREATMENT AND PREVENTION OF AGING RELATED-DISEASE AND/OR AGING BY THE INHIBITION OF SPHINGOLIPIDS” (ECOLE POLYTECHNIQUE FEDERALE DE LAUSANNE (EPFL), priority 2019, published 2022)
